According to patent US6613747B2, “6-O-carbamoyl ketolide antibacterials” (Ortho-McNeil Pharmaceutical, Inc., priority 2000, dated 2003):
Values after ≈ are worked out from the molar mass of the structure shown.

Columns and labels:
Test in all cases: MIC, microdilution broth method (NCCLS)
Format in all cases: cell-based
E. faecalis ATCC29212 = details: C: E. faecalis ATCC29212, 35° C., 16-20 hours
In short: (§1)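 MIC is read as growth in drug wells versus untreated growth-control wells after 16-20 hours at 35° C. Drug was serially diluted two-fold in cation-adjusted Mueller-Hinton broth. Turbidity-adjusted cultures gave about 5×10^4 CFU per well.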

S. pneumoniae ATCC49619 = details: D: S. pneumoniae ATCC49619, 35° C., 16-20 hours
In short: as §1

H. influenzae ATCC49247 = details: E: H. influenzae ATCC49247, 35° C., 16-20 hours
In short: as §1

E. coli OC2605 = details: A: E. coli OC2605, 35° C., 16-20 hours
In short: as §1

S. aureus ATCC29213 = details: B: S. aureus ATCC29213, 35° C., 16-20 hours
In short: as §1

| Compound | MIC (E. faecalis ATCC29212) | MIC (S. pneumoniae ATCC49619) | MIC (H. influenzae ATCC49247) | MIC (E. coli OC2605) | MIC (S. aureus ATCC29213) |
| --- | --- | --- | --- | --- | --- |
| CC[C@H]1OC(=O)[C@H](C)C(=O)[C@H](C)[C@@H](O[C@@H]2O[C@H](C)C[C@H](N(C)C)[C@H]2O)[C@](C)(OC(=O)NCCNC(=O)c2cnc3ccccc3c2)C[C@@H](C)C(=O)[C@H](C)[C@H]2NC(=O)O[C@@]21C [Compound 113] | 1 µg/mL (≈ 1.19 µM) | 0.06 µg/mL (≈ 0.0714 µM) | 8 µg/mL (≈ 9.52 µM) | >16 µg/mL | 4 µg/mL (≈ 4.76 µM) |
| CC[C@H]1OC(=O)[C@H](C)C(=O)[C@H](C)[C@@H](O[C@@H]2O[C@H](C)C[C@H](N(C)C)[C@H]2O)[C@](C)(OC(=O)NCCNCc2cnc3ccccc3c2)C[C@@H](C)C(=O)[C@H](C)[C@H]2NC(=O)O[C@@]21C [Compound 114] | 0.25 µg/mL (≈ 0.303 µM) | 0.06 µg/mL (≈ 0.0726 µM) | 4 µg/mL (≈ 4.84 µM) | >16 µg/mL | 2 µg/mL (≈ 2.42 µM) |
| CC[C@H]1OC(=O)[C@H](C)C(=O)[C@H](C)[C@@H](O[C@@H]2O[C@H](C)C[C@H](N(C)C)[C@H]2O)[C@](C)(OC(=O)NCCNCc2ccc(-c3ncccn3)cc2)C[C@@H](C)C(=O)[C@H](C)[C@H]2NC(=O)O[C@@]21C [Compound 115] | 0.5 µg/mL (≈ 0.586 µM) | 0.06 µg/mL (≈ 0.0703 µM) | 16 µg/mL (≈ 18.8 µM) | >16 µg/mL | 2 µg/mL (≈ 2.34 µM) |
| CC[C@H]1OC(=O)[C@H](C)C(=O)[C@H](C)[C@@H](O[C@@H]2O[C@H](C)C[C@H](N(C)C)[C@H]2O)[C@](C)(OC(=O)NCCNCc2cccnc2)C[C@@H](C)C(=O)[C@H](C)[C@H]2NC(=O)O[C@@]21C [Compound 116] | 1 µg/mL (≈ 1.29 µM) | 0.12 µg/mL (≈ 0.155 µM) | 8 µg/mL (≈ 10.3 µM) | >16 µg/mL | 2 µg/mL (≈ 2.58 µM) |
| CC[C@H]1OC(=O)[C@H](C)C(=O)[C@H](C)[C@@H](O[C@@H]2O[C@H](C)C[C@H](N(C)C)[C@H]2O)[C@](C)(OC(=O)NCCN(C)Cc2ccc(-c3ncccn3)cc2)C[C@@H](C)C(=O)[C@H](C)[C@H]2NC(=O)O[C@@]21C [Compound 117] | 0.5 µg/mL (≈ 0.577 µM) | 0.06 µg/mL (≈ 0.0692 µM) | >16 µg/mL | >16 µg/mL | 2 µg/mL (≈ 2.31 µM) |
| CC[C@H]1OC(=O)[C@H](C)C(=O)[C@H](C)[C@@H](O[C@@H]2O[C@H](C)C[C@H](N(C)C)[C@H]2O)[C@](C)(OC(=O)NCCN(C)Cc2cccnc2)C[C@@H](C)C(=O)[C@H](C)[C@H]2NC(=O)O[C@@]21C [Compound 118] | 1 µg/mL (≈ 1.27 µM) | 0.12 µg/mL (≈ 0.152 µM) | 16 µg/mL (≈ 20.3 µM) | >16 µg/mL | 8 µg/mL (≈ 10.1 µM) |
| CC[C@H]1OC(=O)[C@H](C)C(=O)[C@H](C)[C@@H](O[C@@H]2O[C@H](C)C[C@H](N(C)C)[C@H]2O)[C@](C)(OC(=O)NCCN(C)Cc2cnc3ccccc3c2)C[C@@H](C)C(=O)[C@H](C)[C@H]2NC(=O)O[C@@]21C [Compound 119] | 0.25 µg/mL (≈ 0.298 µM) | 0.06 µg/mL (≈ 0.0714 µM) | 8 µg/mL (≈ 9.52 µM) | >16 µg/mL | 4 µg/mL (≈ 4.76 µM) |
| CCC1OC(=O)C(C)(F)C(=O)C(C)C(OC2OC(C)CC(N(C)C)C2O)C(C)(OC(=O)NCC=Cc2ccc(-c3ncccn3)cc2)CC(C)C(=NO)C(C)C2NC(=O)OC12C (centres unmarked) [Compound 123] | 0.12 µg/mL (≈ 0.138 µM) | 0.03 µg/mL (≈ 0.0345 µM) | 4 µg/mL (≈ 4.6 µM) | 16 µg/mL (≈ 18.4 µM) | 0.25 µg/mL (≈ 0.288 µM) |
| CCC1OC(=O)C(C)(F)C(=O)C(C)C(OC2OC(C)CC(N(C)C)C2O)C(C)(OC(=O)NCC=Cc2cn(-c3ncccn3)cn2)CC(C)C(=NO)C(C)C2NC(=O)OC12C (centres unmarked) [Compound 124] | 0.12 µg/mL (≈ 0.14 µM) | 0.03 µg/mL (≈ 0.0349 µM) | 4 µg/mL (≈ 4.66 µM) | 16 µg/mL (≈ 18.6 µM) | 0.25 µg/mL (≈ 0.291 µM) |
| CCC1OC(=O)C(C)(F)C(=O)C(C)C(OC2OC(C)CC(N(C)C)C2O)C(C)(OC(=O)NCC=Cc2ccc(-c3cccnn3)cc2)CC(C)C(=NO)C(C)C2NC(=O)OC12C (centres unmarked) [Compound 125] | 0.25 µg/mL (≈ 0.288 µM) | 0.06 µg/mL (≈ 0.069 µM) | 2 µg/mL (≈ 2.3 µM) | 16 µg/mL (≈ 18.4 µM) | 0.5 µg/mL (≈ 0.575 µM) |
| CCC1OC(=O)C(C)(F)C(=O)C(C)C(OC2OC(C)CC(N(C)C)C2O)C(C)(OC(=O)NCC=Cc2cnc3ccccc3c2)CC(C)C(=NO)C(C)C2NC(=O)OC12C (centres unmarked) [Compound 127] | 0.12 µg/mL (≈ 0.143 µM) | 0.03 µg/mL (≈ 0.0356 µM) | 2 µg/mL (≈ 2.38 µM) | 8 µg/mL (≈ 9.5 µM) | 0.25 µg/mL (≈ 0.297 µM) |
| CCC1OC(=O)C(C)(F)C(=O)C(C)C(OC2OC(C)CC(N(C)C)C2O)C(C)(OC(=O)NCc2ccc(-c3ncccn3)cc2)CC(C)C(=NO)C(C)C2NC(=O)OC12C (centres unmarked) [Compound 128] | 2 µg/mL (≈ 2.37 µM) | 0.25 µg/mL (≈ 0.297 µM) | 8 µg/mL (≈ 9.49 µM) | >16 µg/mL | 4 µg/mL (≈ 4.75 µM) |
| CCC1OC(=O)C(C)(F)C(=O)C(C)C(OC2OC(C)CC(N(C)C)C2O)C(C)(OC(=O)NCC=Cc2ccccc2)CC(C)C(=NO)C(C)C2NC(=O)OC12C (centres unmarked) [Compound 129] | 0.12 µg/mL (≈ 0.152 µM) | 0.03 µg/mL (≈ 0.0379 µM) | 1 µg/mL (≈ 1.26 µM) | 8 µg/mL (≈ 10.1 µM) | 0.25 µg/mL (≈ 0.316 µM) |
| CCC1OC(=O)C(C)(F)C(=O)C(C)C(OC2OC(C)CC(N(C)C)C2O)C(C)(OC(=O)NCC=Cc2ccnc(Br)c2)CC(C)C(=NO)C(C)C2NC(=O)OC12C (centres unmarked) [Compound 130] | 0.12 µg/mL (≈ 0.138 µM) | ≦0.015 μg/mL | 0.5 µg/mL (≈ 0.574 µM) | 8 µg/mL (≈ 9.19 µM) | 0.25 µg/mL (≈ 0.287 µM) |
| CC[C@H]1OC(=O)[C@H](C)C(=O)[C@H](C)[C@@H](O[C@@H]2O[C@H](C)C[C@H](N(C)C)[C@H]2O)[C@](C)(OC(=O)NC/C=C/c2ccc(-c3ncccn3)cc2)C[C@@H](C)C(=NO)[C@H](C)[C@H]2NC(=O)O[C@@]21C [Compound 133] | 0.25 µg/mL (≈ 0.294 µM) | 0.03 µg/mL (≈ 0.0353 µM) | 2 µg/mL (≈ 2.35 µM) | 16 µg/mL (≈ 18.8 µM) | 0.25 µg/mL (≈ 0.294 µM) |
| CCC1OC(=O)C(C)C(=NOC)C(C)C(OC2OC(C)CC(N(C)C)C2O)C(C)(OC(=O)NCC=Cc2ccc(-c3ncccn3)cc2)CC(C)C(=NOC)C(C)C2NC(=O)OC12C (centres unmarked) [Compound 134] | 1 µg/mL (≈ 1.12 µM) | 0.12 µg/mL (≈ 0.134 µM) | >16 µg/mL | >16 µg/mL | 2 µg/mL (≈ 2.24 µM) |
| CC[C@H]1OC(=O)[C@H](C)C(=O)[C@H](C)[C@@H](O[C@@H]2O[C@H](C)C[C@H](N(C)C)[C@H]2O)[C@](C)(OC(=O)NCC2CC(c3ccc(-c4ncccn4)cc3)C2)C[C@@H](C)C(=O)[C@H](C)[C@H]2NC(=O)O[C@@]21C (some centres unmarked) [Compound 135] | 2 µg/mL (≈ 2.31 µM) | 0.5 µg/mL (≈ 0.579 µM) | >16 µg/mL | >16 µg/mL | 4 µg/mL (≈ 4.63 µM) |
| CC[C@H]1OC(=O)[C@H](C)C(=O)[C@H](C)[C@@H](O[C@@H]2O[C@H](C)C[C@H](N(C)C)[C@H]2O)[C@](C)(OC(=O)N2CCC(c3ccccc3)CC2)C[C@@H](C)C(=O)[C@H](C)[C@H]2NC(=O)O[C@@]21C [Compound 137] | 1 µg/mL (≈ 1.27 µM) | 0.25 µg/mL (≈ 0.318 µM) | 8 µg/mL (≈ 10.2 µM) | >16 µg/mL | 4 µg/mL (≈ 5.09 µM) |
| CC[C@H]1OC(=O)[C@H](C)C(=O)[C@H](C)[C@@H](O[C@@H]2O[C@H](C)C[C@H](N(C)C)[C@H]2O)[C@](C)(OC(=O)N2Cc3ccccc3C2)C[C@@H](C)C(=O)[C@H](C)[C@H]2NC(=O)O[C@@]21C [Compound 138] | 2 µg/mL (≈ 2.69 µM) | 0.5 µg/mL (≈ 0.672 µM) | 8 µg/mL (≈ 10.8 µM) | >16 µg/mL | 16 µg/mL (≈ 21.5 µM) |
